Laboratory results from ChEMBL document CHEMBL1201862, “PubChem BioAssay data set” (2004).
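Dose response: 5 concentrations. Exposure: 48 h. Format: 96-well plates. Endpoint: linear interpolation; highest concentration if not reached. Abbreviation: GI50, concentration required for 50% inhibition of growth.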 Calls of active or inactive are those of the source. No stated cut-off is given here; in the data, active = GI50 up to about 1.1 µM and inactive = higher.

Experiments:
Test in all cases: NCI anticancer screen, dose series, 48 h
SR = system: SR
NCI-H226 = system: NCI-H226
EKVX = system: EKVX
SF-295 = system: SF-295
UO-31 = system: UO-31
HCC 2998 = system: HCC 2998
HOP-62 = system: HOP-62
HCT-116 = system: HCT-116
SNB-75 = system: SNB-75
OVCAR-8 = system: OVCAR-8
IGROV-1 = system: IGROV-1
LOX IMVI = system: LOX IMVI
KM12 = system: KM12
SK-MEL-5 = system: SK-MEL-5
A549 = system: A549
SNB-19 = system: SNB-19
NCI-H460 = system: NCI-H460
OVCAR-3 = system: OVCAR-3
RPMI-8226 = system: RPMI-8226

Structure (SMILES)	GI50 (SR)	GI50 (NCI-H226)	GI50 (EKVX)	GI50 (SF-295)	GI50 (UO-31)	GI50 (HCC 2998)	GI50 (HOP-62)	GI50 (HCT-116)	GI50 (SNB-75)	GI50 (OVCAR-8)	GI50 (IGROV-1)	GI50 (LOX IMVI)	GI50 (KM12)	GI50 (SK-MEL-5)	GI50 (A549)	GI50 (SNB-19)	GI50 (NCI-H460)	GI50 (OVCAR-3)	GI50 (RPMI-8226)
c1ccc(COCC23CCN(Cc4ccccc4)C(CC(OCc4ccccc4)C2)S3)cc1 (stereo unspecified)	26.6 µM (inactive)	97.3 µM (inactive)	49 µM (inactive)	87.1 µM (inactive)	30.2 µM (inactive)	58.5 µM (inactive)	65.9 µM (inactive)	42.7 µM (inactive)	> 100 µM (inactive)	73.5 µM (inactive)	> 100 µM (inactive)	19.3 µM (inactive)	44.1 µM (inactive)	15.8 µM (inactive)	41.4 µM (inactive)	90.8 µM (inactive)	46.7 µM (inactive)	97.5 µM (inactive)	35.2 µM (inactive)
CCOc1ccnc2c(OC)c(C)c3nc4ccccc4nc3c12	18.6 µM (inactive)	> 100 µM (inactive)	> 100 µM (inactive)	> 100 µM (inactive)	> 100 µM (inactive)	> 100 µM (inactive)	> 100 µM (inactive)	> 100 µM (inactive)	25.3 µM (inactive)	57.4 µM (inactive)	52.1 µM (inactive)	> 100 µM (inactive)	86.5 µM (inactive)	> 100 µM (inactive)	> 100 µM (inactive)	> 100 µM (inactive)	> 100 µM (inactive)	> 100 µM (inactive)	> 100 µM (inactive)
CCOC(=O)/C(=C\NCC(OCC)OCC)c1nc2ccccc2[nH]1	18.6 µM (inactive)	37.7 µM (inactive)	27.6 µM (inactive)	32.1 µM (inactive)	13.3 µM (inactive)	20.1 µM (inactive)	31.8 µM (inactive)	29.6 µM (inactive)	22.2 µM (inactive)	32.8 µM (inactive)	29 µM (inactive)	24.8 µM (inactive)	32.1 µM (inactive)	14.5 µM (inactive)	42.9 µM (inactive)	67.3 µM (inactive)	23.1 µM (inactive)	22 µM (inactive)	18.7 µM (inactive)
CCCCc1ccc(Nc2ncc3ncn(COCCO)c3n2)cc1	17.1 µM (inactive)	62.2 µM (inactive)	22.9 µM (inactive)	27.3 µM (inactive)	21.1 µM (inactive)	20.3 µM (inactive)	26.6 µM (inactive)	21 µM (inactive)	24.8 µM (inactive)	29 µM (inactive)	28.6 µM (inactive)	17.9 µM (inactive)	27.3 µM (inactive)	21.8 µM (inactive)	37.2 µM (inactive)	44.3 µM (inactive)	22.4 µM (inactive)	22.8 µM (inactive)	16.4 µM (inactive)
COc1ccc2nc3cc(Cl)ccc3c(NCCNC(=O)Cn3c(=O)n(C)c(=O)c4c3nc3c(c(=O)n(C)c(=O)n3C)[n+]4[O-])c2c1	18.5 µM (inactive)	35.6 µM (inactive)	34.7 µM (inactive)	44.8 µM (inactive)	> 100 µM (inactive)	30.2 µM (inactive)	20.7 µM (inactive)	35.2 µM (inactive)	33.9 µM (inactive)	2.47 µM (inactive)	19.1 µM (inactive)	38.3 µM (inactive)	61.8 µM (inactive)	58.2 µM (inactive)	71.8 µM (inactive)	23.9 µM (inactive)	44.7 µM (inactive)	39.5 µM (inactive)	> 80.9 µM (inactive)
CC1(C)CC(=O)/C(=C/C2CCNC2=S)C(=O)N1 (stereo unspecified)	> 100 µM (inactive)	> 100 µM (inactive)	> 100 µM (inactive)	> 100 µM (inactive)	> 100 µM (inactive)	> 100 µM (inactive)	> 100 µM (inactive)	> 100 µM (inactive)	> 100 µM (inactive)	> 100 µM (inactive)	> 100 µM (inactive)	> 100 µM (inactive)	> 100 µM (inactive)	> 100 µM (inactive)	> 100 µM (inactive)	> 100 µM (inactive)	> 100 µM (inactive)	> 100 µM (inactive)	> 100 µM (inactive)
CC(C)(C)c1cc(OCc2nnc3sc(-c4ccc(Cl)cc4)nn23)c(Cl)cc1OCc1nnc2sc(-c3ccc(Cl)cc3)nn12	0.315 µM (active)	17.3 µM (inactive)	13.1 µM (inactive)	3.3 µM (inactive)	10.3 µM (inactive)	2.34 µM (inactive)	5.87 µM (inactive)	3.54 µM (inactive)	2.19 µM (inactive)	3.93 µM (inactive)	3.82 µM (inactive)	5.04 µM (inactive)	2.47 µM (inactive)	0.726 µM (active)	4.21 µM (inactive)	3.59 µM (inactive)	3.06 µM (inactive)	2.47 µM (inactive)	3.56 µM (inactive)
Cc1cc(C)cc(Nc2nnc3n2S(=O)(=O)c2cc(C)c(Cl)cc2S3)c1	2.09 µM (inactive)	3.07 µM (inactive)	11.2 µM (inactive)	7.03 µM (inactive)	7.14 µM (inactive)	4.8 µM (inactive)	7.31 µM (inactive)	3.48 µM (inactive)	3.87 µM (inactive)	3.97 µM (inactive)	5.43 µM (inactive)	3.44 µM (inactive)	8.38 µM (inactive)	5.92 µM (inactive)	5.01 µM (inactive)	4.3 µM (inactive)	4.29 µM (inactive)	4.27 µM (inactive)	2.88 µM (inactive)
Cc1cc2c(cc1C)C(=O)/C(=C/c1ccccc1C(=O)O)C2	21.2 µM (inactive)	15.3 µM (inactive)	50.7 µM (inactive)	32.5 µM (inactive)	50.6 µM (inactive)	27.4 µM (inactive)	42.4 µM (inactive)	37.9 µM (inactive)	30 µM (inactive)	38.4 µM (inactive)	> 100 µM (inactive)	25.9 µM (inactive)	55.5 µM (inactive)	47.6 µM (inactive)	67.5 µM (inactive)	34.7 µM (inactive)	40.5 µM (inactive)	31.7 µM (inactive)	24.3 µM (inactive)
CCOC(=O)c1[nH]c2cccc3c2c1CC[C@H](NC(=O)C(F)(F)F)C3=O	> 100 µM (inactive)	> 100 µM (inactive)	< 0.01 µM (active)	22.3 µM (inactive)	> 100 µM (inactive)	> 100 µM (inactive)	24 µM (inactive)	35.6 µM (inactive)	24.3 µM (inactive)	19.7 µM (inactive)	75.5 µM (inactive)	78 µM (inactive)	61.8 µM (inactive)	22.5 µM (inactive)	28.8 µM (inactive)	15.8 µM (inactive)	53.6 µM (inactive)	> 100 µM (inactive)	> 100 µM (inactive)
Cn1c([N+](=O)[O-])cnc1CN1CCN(CCO)CC1	> 100 µM (inactive)	> 100 µM (inactive)	> 100 µM (inactive)	> 100 µM (inactive)	> 100 µM (inactive)	> 100 µM (inactive)	> 100 µM (inactive)	> 100 µM (inactive)	> 100 µM (inactive)	> 100 µM (inactive)	> 100 µM (inactive)	> 100 µM (inactive)	> 100 µM (inactive)	> 100 µM (inactive)	> 100 µM (inactive)	> 100 µM (inactive)	> 100 µM (inactive)	> 100 µM (inactive)	> 100 µM (inactive)
Cn1nc(-c2ccccc2)c2c(-c3ccccc3)c3cc(Cl)ccc3nc21	> 100 µM (inactive)	> 100 µM (inactive)	> 100 µM (inactive)	97.1 µM (inactive)	> 100 µM (inactive)	> 100 µM (inactive)	> 100 µM (inactive)	41.3 µM (inactive)	> 100 µM (inactive)	> 100 µM (inactive)	> 100 µM (inactive)	> 90.4 µM (inactive)	> 100 µM (inactive)	> 100 µM (inactive)	> 100 µM (inactive)	> 100 µM (inactive)	75.7 µM (inactive)	> 100 µM (inactive)	> 100 µM (inactive)
Cn1c2ccccc2c(=NNc2ccc(S(=O)(=O)N=C(N)N)cc2)c2ccccc21	5.01 µM (inactive)	4.49 µM (inactive)	5.57 µM (inactive)	13.3 µM (inactive)	4.33 µM (inactive)	6.25 µM (inactive)	11.8 µM (inactive)	5.65 µM (inactive)	12.2 µM (inactive)	6.03 µM (inactive)	11.7 µM (inactive)	5.02 µM (inactive)	7.98 µM (inactive)	5.41 µM (inactive)	10 µM (inactive)	10.6 µM (inactive)	3.37 µM (inactive)	7.35 µM (inactive)	7.8 µM (inactive)
CC(=O)OC1C2CCC3C(C)(O)C4CC(O)C(C)(C)C4(O)C(O)CC13CC2(C)O (stereo unspecified)	> 100 µM (inactive)	> 100 µM (inactive)	> 100 µM (inactive)	> 100 µM (inactive)	> 100 µM (inactive)	> 100 µM (inactive)	> 100 µM (inactive)	> 100 µM (inactive)	> 100 µM (inactive)	> 100 µM (inactive)	> 100 µM (inactive)	> 100 µM (inactive)	> 100 µM (inactive)	> 100 µM (inactive)	> 100 µM (inactive)	> 100 µM (inactive)	> 10 µM (inactive)	> 100 µM (inactive)	> 100 µM (inactive)
